Where a name gives a salt, the structure may show the parent alone.
Each compound was assayed on mixed lymphocyte reaction (PBMC with allogeneic PBMC or Eppstein-Barr Virus-transformed human B cells as stimulator cells) (assay: Mixed lymphocyte reaction (MLR) assay). Conditions: lowest concentration giving 50% suppression of the MLR; [3H]-thymidine.
Type: cell-based
Protocol: Pteridine derivatives were first dissolved (10 mM) in dimethylsulfoxide (hereinafter referred as DMSO) and further diluted in culture medium before use for the following in vitro experiments. The commercially available culture medium consisted of RPMI-1640+10% foetal calf serum (FCS). Some pteridine derivatives described in the previous examples (as indicated in table 1) were tested in the following mixed lymphocyte reaction (MLR) assay.
Peripheral blood mononuclear cells (hereinafter referred as PBMC) were isolated from heparinized peripheral blood by density gradient centrifugation over Lymphoprep (Nycomed, Maorstua, Norway). Allogeneic PBMC or Eppstein-Barr Virus-transformed human B cells [commercially available under the trade name RPM11788 (ATCC name CCL156)] which strongly express B7-1 and B7-2 antigens were used as stimulator cells after irradiation with 30 Gy. MLR was performed in triplicate wells. After 5 days incubation at 37° C., 1 μCi [^3H]-thymidine was added to each cup. After a further 16 hours incubation, cells were harvested and counted in a […]. Inhibition of proliferation by a compound (drug) described in some of the previous examples was counted using the formula: [formula] wherein cpm is the thymidine count per minute. The MLR assay is regarded by those skilled in the art as an in vitro analogue of the transplant rejection since it is based on the recognition of allogeneic major histocompatibility antigens on the stimulator leukocytes, by responding lymphocytes.

Row | Compound | IC50
1 | 2-amino-4-(1-(2-diethylaminoethyl)-piperazino)-6-(3,4-dimethoxyphenyl)pteridine [Example 127] | 9100 nM
2 | 2-amino-4-(1-(2-imidazol-1-yl-ethyl-piperazine)-6-(3,4-dimethoxyphenyl)pteridine [Example 155] | 3600 nM
3 | 2-amino-6-(3,4-dimethoxyphenyl)-4-((tetrahydrofurfuryl)-piperazin-1-yl)pteridine [Example 169] | 800 nM
4 | CCC(=O)N1CCN(c2nc(N)nc3ncc(-c4ccc(OC)c(OC)c4)nc23)CC1 [Example 9, 2-amino-4-[(N-propionyl)-piperazin-1-yl]-6-(3,4-dimethoxyphenyl)pteridine] | 500 nM
5 | COc1ccc(-c2cnc3nc(N)nc(N4CCN(C(=O)c5ccccc5)CC4)c3n2)cc1OC [Example 11, 2-amino-4-(N-benzoylpiperazin-1-yl)-6-(3,4-dimethoxyphenyl)pteridine] | 400 nM
6 | COc1ccc(-c2cnc3nc(N)nc(N4CCN(C(=O)c5cccs5)CC4)c3n2)cc1OC [Example 13, 2-amino-4-[(N-2-thiophenecarbonyl)-piperazin-1-yl]-6-(3,4-dimethoxy-phenyl)pteridine] | 100 nM
7 | CCN(CC)C(=O)N1CCN(c2nc(N)nc3ncc(-c4ccc(OC)c(OC)c4)nc23)CC1 [Example 14, 2-amino-4-[(N-diethylcarbamoyl)-piperazin-1-yl]-6-(3,4-dimethoxy-phenyl)pteridine] | 200 nM
8 | COCC(=O)N1CCN(c2nc(N)nc3ncc(-c4ccc(OC)c(OC)c4)nc23)CC1 [Example 41, 2-amino-4-[(N-methoxyacetyl)-piperazin-1-yl]-6-(3,4-dimethoxyphenyl)pteridine] | 500 nM
9 | COc1ccc(-c2cnc3nc(N)nc(N4CCN(C(=O)c5ccoc5)CC4)c3n2)cc1OC [Example 47, 2-amino-4-[N-(3-furoylcarbonyl)-piperazin-1-yl]-6-(3,4-dimethoxyphenyl)pteridine] | 300 nM
10 | CC(=O)N1CCN(c2nc(N)nc3ncc(-c4ccccc4)nc23)CC1 [Example 55, 2-amino-4-(N-acetylpiperazin-1-yl)-6-phenyl-pteridine] | 5100 nM
11 | CC(=O)N1CCN(c2nc(N)nc3ncc(-c4ccc(Cl)cc4)nc23)CC1 [Example 58, 2-amino-4-(N-acetylpiperazin-1-yl)-6-(4-chloro-phenyl)pteridine] | 7600 nM
12 | COc1ccc(-c2cnc3nc(N)nc(N4CCN(C(=O)NCc5ccccc5)CC4)c3n2)cc1OC [Example 104, 2-amino-4-(N-benzylcarbamoyl-piperazin-1-yl)-6-(3,4-dimethoxyphenyl)pteridine] | 18 nM
13 | COc1ccc(-c2cnc3nc(N)nc(N4CCN(C(=O)[C@@H](N)CC(N)=O)CC4)c3n2)cc1OC [Example 111, 2-amino-4-[N-[2-(S),4-diamino-4-oxobutanoyl]-piperazin-1-yl]-6-(3,4-dimethoxyphenyl)pteridine] | 8800 nM
14 | COCCN1CCN(c2nc(N)nc3ncc(-c4ccc(OC)c(OC)c4)nc23)CC1 [Example 122, 2-amino-4-(1-(2-methoxyethyl)piperazino)-6-(3,4-dimethoxyphenyl)pteridine] | 800 nM
15 | COc1ccc(-c2cnc3nc(N)nc(N4CCN(Cc5ccc(F)cc5)CC4)c3n2)cc1OC [Example 138, 2-amino-4-((4-fluorobenzyl)piperazin-1-yl)-6-(3,4-dimethoxyphenyl)pteridine] | 6000 nM
16 | COc1ccc(-c2cnc3nc(N)nc(N4CCN(c5cccc(C)c5)CC4)c3n2)cc1OC [Example 175, 2-amino-6-(3,4-dimethoxyphenyl)-4-((3-methylphenyl)-piperazin-1-yl)pteridine] | 400 nM
17 | COc1ccc(-c2cnc3nc(N)nc(N4CCN(C(=O)Nc5ccc(C(F)(F)F)cc5)CC4)c3n2)cc1OC [Example 194, 2-amino-4-(N-4-trifluoromethyl-phenyl-carbamoyl-piperazin-1-yl)-6-(3,4-dimethoxyphenyl)pteridine] | 52 nM
18 | COc1ccc(-c2cnc3nc(N)nc(N4CCN(C(=O)Nc5ccc(Br)cc5)CC4)c3n2)cc1OC [Example 196, 2-amino-4-(N-4-bromo-phenyl-carbamoyl-piperazin-1-yl)-6-(3,4-dimethoxyphenyl)pteridine] | 100 nM
19 | COc1ccc(-c2cnc3nc(N)nc(N4CCN(C(=O)Nc5cccc(I)c5)CC4)c3n2)cc1OC [Example 197, 2-amino-4-(N-3-iodo-phenyl-carbamoyl-piperazin-1-yl)-6-(3,4-dimethoxyphenyl)pteridine] | 40 nM
20 | COc1cc(-c2cnc3nc(N)nc(N4CCN(c5ccc(C)cc5)CC4)c3n2)ccc1OC(C)C [Example 208] | 4400 nM

What follows are compounds tested on production of TNF-α by PBMC in response to stimulation by LPS (assay: TNF-α assay). Conditions: Homo sapiens, LPS 1 μg/ml, 72 hours, sandwich ELISA.
Type: cell-based, human
Protocol: Peripheral blood mononuclear cells (herein referred as PBMC), in response to stimulation by lipopolysaccharide (hereinafter LPS), a gram-negative bacterial endotoxin, produce various […], in particular human TNF-α. Inhibition of the activation of PBMC can therefore be measured by the level of suppression of the production of TNF-α by PBMC in response to stimulation by LPS.
Such inhibition measurement was performed as follows: PBMC were isolated from heparinized peripheral blood by density gradient centrifugation over Lymphoprep (commercially available from Nycomed, Norway). LPS was then added to the PMBC suspension in complete medium (10^6 cells/ml) at a final concentration of 1 μg/ml. The pteridine derivative to be tested was added at different concentrations (0.1 μM, 1 μM and 10 μM) and the cells were incubated at 37° C. for 72 hours in 5% CO2. The supernatants were collected, then TNF-α concentrations were measured with respectively an anti-TNF-α antibody in a sandwich ELISA (Duo Set ELISA human TNFα, commercially available from R&D Systems, United Kingdom). The calorimetric reading of the ELISA was measured by a Multiskan RC plate reader (commercially available from ThermoLabsystems, Finland) at 450 nm (reference wavelength: 690 nm). Data analysis was performed with Ascent software 2.6. (also from ThermoLabsystems, Finland): a standard curve (recombinant human TNFα) was drawn and the amount (pg/ml) of each sample on the standard curve was determined.
The % suppression of human TNFα production by the pteridine derivatives of the invention (drugs) was calculated using the formula: [formula]

Row | Compound | IC50
21 | COc1ccc(-c2cnc3nc(N)nc(N4CCN(CCN(C)C)CC4)c3n2)cc1OC [Example 181, 2-amino-6-(3,4-dimethoxyphenyl)-4-(4-(2-dimethylaminoethyl)-piperazin-1-yl)-pteridine trihydrochloride salt] | 8800 nM
22 | COc1ccc(-c2cnc3nc(N)nc(N4CCN(CCCN(C)C)CC4)c3n2)cc1OC [Example 182, 2-amino-6-(3,4-dimethoxyphenyl)-4-(4-(3-dimethylaminopropyl)-piperazin-1-yl)pteridine trihydrochloride salt] | 4800 nM

Same assay, conditions: LPS 1 μg/ml, 72 hours, sandwich ELISA

Row | Compound | IC50
23 | 2-amino-4-(1-(2-diethylaminoethyl)-piperazino)-6-(3,4-dimethoxyphenyl)pteridine [Example 127] | 2600 nM
24 | 2-amino-6-(3,4-dimethoxyphenyl)-4-((tetrahydrofurfuryl)-piperazin-1-yl)pteridine [Example 169] | 300 nM
25 | COc1ccc(-c2cnc3nc(N)nc(N4CCN(C(C)=O)CC4)c3n2)cc1OC [Example 8, 2-amino-4-(N-acetylpiperazin-1-yl)-6-(3,4-dimethoxyphenyl)pteridine] | 400 nM
26 | CCC(=O)N1CCN(c2nc(N)nc3ncc(-c4ccc(OC)c(OC)c4)nc23)CC1 [Example 9, 2-amino-4-[(N-propionyl)-piperazin-1-yl]-6-(3,4-dimethoxyphenyl)pteridine] | 140 nM
27 | COc1ccc(-c2cnc3nc(N)nc(N4CCN(C(=O)c5ccccc5)CC4)c3n2)cc1OC [Example 11, 2-amino-4-(N-benzoylpiperazin-1-yl)-6-(3,4-dimethoxyphenyl)pteridine] | 400 nM
28 | COc1ccc(-c2cnc3nc(N)nc(N4CCN(C(=O)c5cccs5)CC4)c3n2)cc1OC [Example 13, 2-amino-4-[(N-2-thiophenecarbonyl)-piperazin-1-yl]-6-(3,4-dimethoxy-phenyl)pteridine] | 80 nM
29 | CCN(CC)C(=O)N1CCN(c2nc(N)nc3ncc(-c4ccc(OC)c(OC)c4)nc23)CC1 [Example 14, 2-amino-4-[(N-diethylcarbamoyl)-piperazin-1-yl]-6-(3,4-dimethoxy-phenyl)pteridine] | 60 nM
30 | COc1ccc(-c2cnc3nc(N)nc(N4CCN(C(=O)c5cc(F)c(Cl)nc5Cl)CC4)c3n2)cc1OC [Example 40] | 700 nM
31 | COc1ccc(-c2cnc3nc(N)nc(N4CCN(C(=O)[C@@H]5CCCN5)CC4)c3n2)cc1OC [Example 62, 2-amino-4-[N-(pyrrolidin-2-(S)-yl)carbonyl-piperazin-1-yl]-6-(3,4-dimethoxy-phenyl)pteridine] | 7600 nM
32 | COC(=O)c1ccc(C(=O)N2CCN(c3nc(N)nc4ncc(-c5ccc(OC)c(OC)c5)nc34)CC2)cc1 [Example 112, 2-amino-4-[N-[4-(methoxycarbonyl)benzoyl]-piperazin-1-yl]-6-(3,4-dimethoxy-phenyl)pteridine] | 280 nM
33 | COc1ccc(-c2cnc3nc(N)nc(N4CCN(C(=O)CN(C)C)CC4)c3n2)cc1OC [Example 113, 2-amino-4-[N-[4-(dimethylamino)acetyl]-piperazin-1-yl]-6-(3,4-dimethoxy-phenyl)pteridine] | 3200 nM
34 | CCN(C(=O)N1CCN(c2nc(N)nc3ncc(-c4ccc(OC)c(OC)c4)nc23)CC1)c1ccccc1 [Example 118, 2-amino-4-(N-ethyl-N-phenyl-carbamoyl-piperazin-1-yl)-6-(3,4-dimethoxyphenyl)pteridine] | 70 nM
35 | CCOC(=O)CN1CCN(c2nc(N)nc3ncc(-c4ccc(OC)c(OC)c4)nc23)CC1 [Example 135, 2-amino-4-(2-(piperazin-1-yl)-acetic acid ethyl ester)-6-(3,4-dimethoxyphenyl)pteridine] | 270 nM
36 | COc1ccc(-c2cnc3nc(N)nc(N4CCN(Cc5ccc(C)cc5)CC4)c3n2)cc1OC [Example 140, 2-amino-4-((4-methylbenzyl)piperazin-1-yl)-6-(3,4-dimethoxyphenyl)pteridine] | 1300 nM
37 | COc1ccc(-c2cnc3nc(N)nc(N4CCN(Cc5ccc6c(c5)OCO6)CC4)c3n2)cc1OC [Example 143, 2-amino-4-(piperonyl-piperazin-1-yl)-6-(3,4-dimethoxyphenyl)pteridine] | 800 nM
38 | COc1ccc(-c2cnc3nc(N)nc(N4CCN(Cc5cccnc5)CC4)c3n2)cc1OC [Example 156] | 400 nM
39 | COc1ccc(-c2cnc3nc(N)nc(N4CCN(CC5OCCO5)CC4)c3n2)cc1OC [Example 170, 2-amino-6-(3,4-dimethoxyphenyl)-4-(1,3-dioxolan-2-yl-methylpiperazin-1-yl)pteridine] | 400 nM

— US20070032477A1, “Pteridine derivatives useful for making pharmaceutical compositions” (priority 2003, published 2007)
